Reference: article PMC4842970, “Bioactivity Focus of α-Cyano-4-hydroxycinnamic acid (CHCA) Leads to Effective Multifunctional Aldose Reductase Inhibitors” (Scientific Reports, 2016)

Assays:
Pax3 = Pax3 protein expression in chick embryos (Western blotting); assay type: in vivo; conditions: glucose-treated chick embryos, EDD 5
Experimental: (§1) Figure 4 5f restored neural tube development and marker expression in chick embryos on EDD 5. Glucose concentration (A) and Pax3 protein expression (B) were determined in chick embryos. The plasma glucose concentration was measured using a glucose oxidase-coupled spectrophotometric assay kit. Proteins were detected using the monoclonal antibody anti-Pax3 diluted 1:1000 (DSHB, USA) and visualized using anti-mouse IgG conjugated with horseradish peroxidase (HRP) and Pierce ECL Western Blotting Substrate (Thermo Fisher Scientific, USA) as the substrate of HRP. […] Values were expressed as mean ± SD in each group (n = 10). *P < 0.05, **P < 0.01 vs. control. ^#P < 0.05, ^##P < 0.01 vs. glucose.
The eyes of EDD 5 chick embryos were separated and lysed in lysis buffer (Beyotime Institute of Biotechnology, China) on ice for 10 min. After centrifugation of the cell suspension at 12000 rpm for 15 min, the protein content of the supernatant was determined with a Pierce BCA protein assay kit (Thermo Fisher Scientific, USA) to ensure equal sample loading. […] Proteins were detected using the monoclonal antibody anti-Pax3 diluted 1:1000 (DSHB, USA) and visualized using anti-mouse IgG conjugated with horseradish peroxidase (HRP) and Pierce ECL Western Blotting Substrate (Thermo Fisher Scientific, USA) as the substrate of HRP.

chick embryo = experiment: Chick embryo model of hyperglycemia: mortality, NTD rate, body weight; assay type: in vivo; conditions: glucose 0.4 mmol/egg
Experimental: In order to evaluate further the potential of 5f as an agent to treat diseases caused by high glucose inside the system, a chick embryo model of treatment with high glucose was set up.
Fertilized leghorn eggs were purchased from the Avian Farm of the South China Agriculture University (Guangzhou, China). Before the injection of glucose (Sigma–Aldrich, MO, USA), the eggs were incubated in a humidified incubator (Grumbach, Germany) at 37 °C with 60% humidity until the embryos reached the desired stage. […] Glucose was dissolved in 200 μL chicken saline and injected on EDD 1. Mortality, abnormality and body weight measurements were made on EDD 5. Embryos were removed from their eggs and weighed. The percent mortality was measured by counting the number of dead versus all embryos. The rate of NTD of the embryos was assessed by the number of NTD versus survival embryos.

[1] = Stability in DMEM containing 5% FBS (RP-HPLC); assay type: in vitro ADME; conditions: 37 °C, 12 h incubation
Experimental: Predicted from its structure, the stability of 5f will be good and the toxicity will be low. […] After 12 h incubation, 86% of 5f remained intact.
The sample was incubated in high-glucose Dulbecco’s modified Eagle’s medium (DMEM) containing 5% fetal calf serum (FBS) for a period of 48 h. Analyses were scheduled at 0.5, 1.0, 4.0, 8.0, 12.0, 24.0, and 48.0 h. Reverse-phase high performance liquid chromatography (RP-HPLC) was performed on a Cosmosil column (C18, […], 4.6 × 250 mm) using an LC-100 fluid unit (Shanghai Wufeng Inc., China) with a tunable LC-100 UV detector. The eluent was various percentages of methanol containing pure water (flow rate: 1.0 ml/min; λ: 254 nm). The experiments were repeated at least 3 times and compared with the control experiment. The results were shown in Supporting Infromation.

[2] = Plasma glucose in chick embryos; assay type: in vivo; conditions: glucose-treated chick embryos, EDD 5
Experimental: as §1
The ventricles of embryos were punctured with a 20-gauge needle. At this early embryonic age, 30–40 μL of blood was obtained from the embryos on each EDD 5. The blood containing heparin was centrifuged at 3000 rpm for 15 min. The plasma glucose concentration was measured using a glucose oxidase-coupled spectrophotometric assay kit obtained from Sigma Chemical Co. (St. Louis, MO, USA) according to the manufacturer’s instructions.

human ALR2 = molecular target: T1, human ALR2 (Homo sapiens, UniProt P15121); experiment: ALR2 inhibition (in vitro reduction of D,L-glyceraldehyde); assay type: biochemical
T1 construct: purchased WAKO Pure Chemical Industries, Ltd. (Japan); host or cells: baculovirus-insect cell expression system
Experimental: Human ALR2 was purchased from WAKO Pure Chemical Industries, Ltd. (Japan), which was purified from the culture medium of baculovirus-insect cell expression system. […] ALR2 inhibition was determined spectrophotometrically according to the procedure described previously.

[3] = ORACFL radical absorbance capacity assay
Description: With the CHCA scaffold, we hypothesized that 5a–j should have antioxidant activity. Therefore, a radical absorbance capacity assay (ORACFL)[41] was employed to assess their capacities. This method is based on the inhibition of peroxyl-radical-induced oxidation initiated by thermal decomposition of azo-compounds, in this case 2,2′-azo-bis (2-amidinopropane) dihydrochloride (AAPH). Trolox (6-hydroxy-2,5,7,8-tetramethylchroman-2-carboxylic acid) was used as a standard reference. Data is expressed as micromoles of Trolox equivalents (TE) per […] of sample (μmol TE/ml or U/ml).
Antioxidant capacity was determined according to the procedure described previously.

[4] = test system: oxidative stress (ROS, MDA, ORAC); experiment: ROS generation, MDA and ORAC level in chick embryos; assay type: in vivo; conditions: glucose-treated chick embryos
Description: It has been reported that hyperglycemia increased the production of ROS. Blocking the generation of ROS could at least partially prevent the possible damage of hyperglycemia. No doubt, oxidative stress will be induced in glucose treated embryos. This conclusion was confirmed by the determination of ROS and malondialdehyde (MDA) levels, and the anti-oxidation ability in chick embryos on EDD 5. […] However, treatment of 5f decreased both levels of ROS and MDA in a dose-dependent manner.
In addition, the ORAC level is indicative of the anti-oxidative capacity.
ROS generation ratios in the eyes of EDD 5 chick embryos were detected with 5 μmol 2′,7′-dichlorofluorescein-diacetate (DCFH-DA, Sigma-Aldrich). The peroxide content was determined by measuring thiobarbituric-acid-reactive substances (TBARS) with a commercial MDA kit (Nanjing Jiancheng Institute of Biotechnology, Nanjing, China). The procedures for the ORAC assay were modified from the previously described method. The automated ORAC assay was carried out on a decay of the fluorescein signal and determined with an excitation/emission filter pair of 485/527 nm in a GENios Lueifcrase microplate reader (TECAN) at 37 °C. Final results were calculated on the basis of the difference in the area under the fluorescein decay curve between the blank and each sample.

CC(=O)N[C@H](COCc1ccccc1)C(=O)NCCCNC(=O)/C(C#N)=C/c1ccc(O)cc1 [Compound 5f, (R,E) - N - (3-(2-acetamido-3-(benzyloxy)propanamido)propyl)-2-cyano-3-(4-hydroxyphenyl)acrylamide]
Pax3 expression (Pax3): restored
Body weight (chick embryo; EDD 5, dose 10 nM (CL)): 291.3 ± 10.2 mg
Death (/n) (chick embryo; EDD 5, dose 10 nM (CL)): 35.0%
NTD (/survival) (chick embryo; EDD 5, dose 10 nM (CL)): 46.20%
Body weight (chick embryo; EDD 5, dose 100 nM (CM)): 295.9 ± 13.2 mg
Death (/n) (chick embryo; EDD 5, dose 100 nM (CM)): 30.0%
NTD (/survival) (chick embryo; EDD 5, dose 100 nM (CM)): 35.7%
Body weight (chick embryo; EDD 5, dose 1 μM): 307.9 ± 10.5 mg
Death (/n) (chick embryo; EDD 5, dose 1 μM): 25.0%
NTD (/survival) (chick embryo; EDD 5, dose 1 μM): 20.0%
remained intact [1]: 86%
plasma glucose level [2]: did not lower
IC50 (human ALR2; human ALR2, D,L-glyceraldehyde as substrate, read-out: IC50 (ALR2 inhibition)): 72.7 ± 1.6 nM
ALR2 inhibition activity relative to 5d (human ALR2; ratio of inhibition activity vs 5d): about 5 times
ORAC ([3]; 3.125 μg/ml): 68.1 ± 2.3 U/ml
ORAC ([3]; 6.25 μg/ml): 66.5 ± 1.6 U/ml
ORAC ([3]; 12.5 μg/ml): 65.7 ± 5.1 U/ml
ORAC value ([3]; concentration of 3.125 μM): 65.7 U/ml
ORAC level (anti-oxidative capacity) of embryo ([4]; EDD 5): recovered
MDA level in embryo ([4]; EDD 5, dose 1 μM): to a normal state
ROS level in embryo ([4]; EDD 5, dose 1 μM): to a normal state
